The target of series [1] is T1, GST-cGB-PDE5 fusion protein (Homo sapiens, UniProt O76074).
T1 construct: made in house; host or cells: E. coli BL21 (DE3)
Description: cGMP binding assay with GST-cGB-PDE5 fusion protein. The note with it: for competition with cGMP binding at high concentration: test substance 100 μM vs cGMP 2 μM. The method, then:
5′-3′, Inc. kits for total RNA followed by oligo (dT) column purification of mRNA are used with HT-29 cells. […] It is then cloned into pGEX-5X-3 glutathione-S-transferase (GST) fusion vector (Pharmacia Biotech) with tac promoter, and EcoRI and XhoI cut sites. The fusion vector is then transfected into E. Coli BL21 (DE3) bacteria (Invitrogen). The transfected BL21 bacteria is grown to log phase, and then IPTG is added as an inducer. The induction is carried at 20° C. for 24 hrs. The bacteria are harvested and lysed. The soluble cell lysate is incubated with GSH conjugated Sepharose 4B (GSH-Sepharose 4B). The GST-cGB-PDE5 fusion protein can bind to the GSH-Sepharose beads, and the other proteins are washed off from beads with excessive cold PBS.
Then, the mixture is transferred to Brandel MB-24 cell harvester with GF/B as the filter membrane followed by 2 washes with 10 mL of cold 5 mM potassium buffer(pH 6.8). The membranes are then cut out and transferred to scintillation vials followed by the addition of 1 mL of H2O and 6 mL of Ready Safe™ liquid scintillation cocktail to each vial. The vials are counted on a Beckman LS 6500 scintillation counter.
The quenching by filter membrane or other debris are also calibrated.

Series [2] concerns dogs. Description: 91-day oral study in dogs. The series is classed as in vivo.
Series [3] has as its system rats. Description: 28-day study in rats. The series is classed as in vivo. The method, then:
A 28-day study in rats was also carried out at 0, 50, 500 and 2000 mg/kg/day.

The next series has as its system PDE4. The series can be described thus: PDE inhibition: PDE4. The class given is biochemical. The settings on record: similar protocols.
Series [4] deals with dogs. The series can be described thus: Acute and seven-dose toxicity in dogs (capsules). The settings on record: dog, in vivo.
Description: Therefore, these dogs were subsequently administered seven consecutive doses of 1000 mg/kg/day.
The test system of another series is dogs with IBD. Description: Efficacy trial in dogs with IBD. The series is classed as in vivo. An excerpt:
IBD in humans is quite similar to IBD in dogs. […] In fact, the IBD treatments used in dogs are very similar to those used in humans, and the success rates are similarly disappointing. The number of dogs with IBD is estimated to be in the millions in the U.S. Feline IBD is also quite common.
The pre-drug history and results achieved with the drug in each dog are as follows: […]

Series [5] deals with rats. Description: Acute toxicity study in rats. The note with it: rat, in vivo.
The subject of a further series is patients. The series can be described thus: Single, escalating dose human clinical safety trial. The class given is in vivo. The note with it: oral, 50 mg BID, 100 mg BID, 200 mg BID and 400 mg BID.
The subject of series [6] is rats. The series can be described thus: 91-day long-term safety assessment study in rats. The series is classed as in vivo. An excerpt:
These changes were not associated with any gross clinical abnormality.

Another series addresses PDE 5 (Homo sapiens, UniProt O76074). The series can be described thus: Competitive binding (with cGMP) to PDE5.
For series [7], the system named is rats. Description: Seven-day dose-range finding study in rats. The class given is in vivo. The settings on record: 7 days.
The next series has as its system PDE1. Description: PDE inhibition: PDE1. The class given is biochemical. The settings on record: similar protocols.
In the next series the target is native bovine PDE5 (Bos taurus, UniProt Q28156). The note with it: read-out: Kd of cGMP binding to native bovine PDE5; cited from earlier work.
Where [8] appears, read: 91 days, highest dose group (300 mg/kg/day).
Where [9] appears, read: 28 days, 50, 500 and 2000 mg/kg/day.

Consider 13 compounds from patent US6699894B1, “Methods for treatment of inflammatory bowel disease” (OSI Pharmaceuticals, Inc., priority 2001, dated 2004).

Structures can show the parent of a compound that is named as a salt. Where two headings read alike, the source gives them in different places.

`CCCCOC1C2OP(=O)(O)OCC2OC1n1cnc2c(N)ncnc21` (stereo not shown) [2′-O-butyl-cAMP]: in [1] (3H-cGMP 2 μM, 22° C., 1 hour), the “competition with cGMP in binding of GST-cGB-PDE5” value (shortened to “competition with cGMP in binding”) is on record as “did not compete”.
On the same count and under the same terms, with `CCCCOC1C2OP(=O)(O)OCC2OC1n1cnc2c(=O)[nH]c(N)nc21` (stereo not shown) [2′-O-butyl-cGMP] the entry was “did not compete”.
Regarding `Nc1ncnc2c1ncn2[C@@H]1O[C@@H]2COP(=O)(O)O[C@H]2[C@H]1O` [Cyclic AMP], the “competition with cGMP in binding” value in [1] is listed as “did not compete”.
With `O=c1[nH]cnc2c1ncn2[C@@H]1O[C@@H]2COP(=O)(O)O[C@H]2[C@H]1O` [Cyclic IMP], the “competition with cGMP binding at high concentration” value in series [1] is “can partially compete”.
Still for that read-out and setting: then `Nc1nc2c(nc(Br)n2[C@@H]2O[C@@H]3COP(=O)(O)O[C@H]3[C@H]2O)c(=O)[nH]1` [Example 8-bromo-cGMP, 8-bromo-cGMP], with “can partially compete”.
In the case of `CC1=C(CC(=O)NCc2ccccc2)c2cc(F)ccc2/C1=C\c1ccncc1` [Example 38, (Z)-5-Fluoro-2-Methyl-(4-Pyridylidene)-3-(N-Benzyl)Indenylacetamide Hydrochloride], the tolerability entry in the series on dogs [2] (91 days) is recorded as “well tolerated”. Moreover, the feces observation result in the series with dogs [2] (91 days, 150 and 300 mg/kg/day) was “Orange discoloration of the feces”. For the same compound, the “microscopic alterations of liver” value with dogs [2] (91 days, highest dose group) is “no microscopic alterations”. For the same compound, in the series with dogs [2] (setting [8]), the body weights entry is “Slightly lowered body weights” and the liver weights entry was “increased liver weights”. For the same compound, the toxicological effects overall result in the series with dogs [2] (oral, 91 consecutive days, 50, 150 and 300 mg/kg/day) is “no toxicological effects”. Moreover, the “route of elimination (suggested by feces colour)” value in the series with dogs [2] (oral, 91 days) is listed as “most of Compound 38 was being eliminated via the feces”. The “macroscopic tissue changes at necropsy” value in the series on rats [3] (28 days) is listed as “No macroscopic tissue changes”. Also, in the series on rats [3] (28 days, 2000 mg/kg/day), the liver weights result was “statistically significant increase” and the thyroid weights result is “statistically significant increases”. In the series on rats [3] (setting [9]), the “body weight changes, ophthalmoscopic examinations, hematological and blood chemistry values and urinalysis” value is given as “unremarkable”; the clinical observations entry is “no abnormal clinical observations”. For the same compound, the “liver and thyroid weights at the lower doses” value in the series with rats [3] (28 days, 50 and 500 mg/kg/day) is “not statistically significant”. Further, in the series on rats [3] (28 days, generally limited to a small number of animals at 2000 mg/kg/day, one female at 500 mg/kg/day), the “histopathological evaluation of tissues” value is “traces of follicular cell hypertrophy, increased numbers of mitotic figures (suggestive of possible cell proliferation) in the thyroid gland and mild centrilobular hypertrophy in the liver”. The compound further showed an IC50 in the series with PDE4 of 6000 nM. In addition, the signs of toxicity entry in the series on dogs [4] (1000 mg/kg) is “no signs of toxicity”. Further, the “signs of drug-related effects” value in the series on dogs [4] (1000 mg/kg/day) is “At no time in either dosing phase were any obvious signs of drug-related effects observed”. Further, in the series with dogs with IBD (Dog #1, 12 weeks of 800 mg BID), the “body weight regained, Dog #1” value is listed as “at least 13 lbs” and the “histopathological change, Dog #1” value was “significant histopathological improvement”. The “body weight, Dog #1” value in the series with dogs with IBD (Dog #1, Month 8 (start), after 12 weeks of treatment, 46 lbs at Month 3 (middle)) is on record as 60 lbs. Moreover, the “small intestine histopathology after treatment, Dog #1” value in the series with dogs with IBD (Dog #1, after 12 weeks of treatment, FIGS. 2 and 4) is given as “closely mimics normal canine small intestinal tissue”. The “blood protein levels, Dog #2” value in the series on dogs with IBD (Dog #2, after 7 weeks 400 mg BID) is recorded as “returned to normal”. Also, in the series with dogs with IBD (Dog #3, 400 mg BID), the “blood protein levels, Dog #3” value is recorded as “gradually returned to within normal limits”. Besides, the “stool, Dog #4” value in the series with dogs with IBD (Dog #4, after 7 weeks 800 mg BID, owner report) is listed as “normal size stool with no mucus”. Besides, the “outcome, Dog #6” value in the series with dogs with IBD (after 7 weeks 800 mg BID, late stage abdominal neoplastic disease discovered post-mortem) is listed as “Euthanized”. Moreover, in the series on dogs with IBD (chronic IBD, 7 weeks 800 mg BID without conventional IBD treatments), the “clinical status, Dog #5” value was “significantly improved and completely normal”. The “clinical status, Dog #4” value with dogs with IBD (chronic IBD, conventional therapy withdrawn, 7 weeks 800 mg BID) is “completely clinically normal with no signs of IBD”. Also, the “stools, Dog #7” value with dogs with IBD (chronic IBD, tylosin stopped, after one week on drug, then withdrawn by owner) is “normal stools began to be formed”. The “clinical status, Dog #2” value with dogs with IBD (moderate IBD (plasmacytic enteritis), two weeks conventional therapy, then 7 weeks 400 mg BID alone) is “Clinically normal”. In addition, the “clinical status, Dog #3” value in the series on dogs with IBD (protein-losing enteropathy with IBD, 7 weeks 400 mg BID with intermittent metronidazole, no prednisone) is listed as “clinically normal”. Further, the “clinical status in first 30 days, Dog #6” value in the series with dogs with IBD (severe IBD, conventional treatment withdrawn, 800 mg BID, first 30 days, owner report) is “playful, active and clinically normal”. Further, the “clinical status, Dog #1” value in the series on dogs with IBD (severe lymphoplasmacytic enteritis, 6 weeks conventional therapy plus 800 mg BID, then 6 weeks 800 mg BID alone) is “became clinically normal”. For the same compound, in the series on rats [5], the “acute toxicity on a single-dose basis” value was “not acutely toxic”. In the series with rats [5] (ip, 1000 mg/kg), the body weight gain entry is “reduced body weight gain” and the necropsy finding result was “mesenteric adhesions seen in some animals”. The body weight gains result with rats [5] (po, 2000 mg/kg) was “slightly reduced”. Moreover, the “binding to the cGMP binding sites of GST-cGB-PDE5 / PDE5” value in series [1] is recorded as “does not bind to the cGMP-binding site of PDE5”. In addition, in the series with patients, the side effects entry is recorded as “no significant side effects at any dose”. Further, the “clinical biochemistry and hematology” value in the series with rats [6] (91 days) was “no changes in clinical biochemistry and hematology were evident”. The “microscopic finding, follicular cells” value with rats [6] (91 days, 500 mg/kg/day) was “follicular cell hypertrophy”. For the same compound, in the series on rats [6] (91 days, 200 and 500 mg/kg/day), the “microscopic finding, kidneys” value is on record as “increase in accumulation of hyalin droplets in the kidneys” and the “microscopic finding, liver” value is reported as “slight hepatocellular hypertrophy”. Also, the “liver and thyroid/parathyroid weights” value in the series with rats [6] (91 days, males and females at 200 and 500 mg/kg/day) is “dose-related trend to increased liver and thyroid/parathyroid weights”. Moreover, the toxicological effects overall entry in the series with rats [6] (oral, 91 consecutive days, 50, 200 and 500 mg/kg/day) is on record as “did not produce any major toxicological effects”. Moreover, the “competitive (with cGMP) binding to PDE 5” value at PDE 5 is given as “does competitively (with cGMP) bind to PDE 5”. Moreover, in the series on rats [7] (50 mg/kg/day), the signs of toxicity result was “no observable signs of toxicity”. In the series with rats [7] (500 mg/kg/day), the treatment-related effects entry was “increase in absolute and relative liver weights in female rats”. In the series on rats [7] (2000 mg/kg/day), the treatment-related effects result was “labored breathing and/or abnormal respiratory sounds, decreased weights gains and food consumption in male rats, and increased liver weights in female rats”. Besides, the “hematology, blood chemistry, microscopic pathology” value in the series with rats [7] (any dose level (50, 500, 2000 mg/kg/day)) is “No hematological or blood chemistry changes nor any microscopic pathology changes”. In addition, 3000 nM corresponded to half-maximal inhibition in the series on PDE1 (IC50).
As for `O=C([O-])C1CCN(c2nc(NCc3ccc4c(c3)OCO4)c3cc(Cl)ccc3n2)CC1.[Na+]` [Example E4021], the “competition with cGMP in binding” value in [1] (3H-cGMP 2 μM, 22° C., 1 hour) is “None of the PDE5 inhibitors showed any competition with cGMP”.
As for `CSc1ccc(/C=C2/C(C)=C(CC(=O)O)c3cc(F)ccc32)cc1` [Sulindac sulfide, sulindac sulfide], the “competition with cGMP in binding” value in [1] (3H-cGMP 2 μM, 22° C., 1 hour) is on record as “None of the PDE5 inhibitors showed any competition with cGMP”.
The same measure, in the same setting: then `Nc1ccn([C@@H]2O[C@@H]3COP(=O)(O)O[C@H]3[C@H]2O)c(=O)n1` [cCMP], with “did not compete”.
With `Nc1nc2c(ncn2[C@@H]2O[C@@H]3COP(=O)(O)O[C@H]3[C@H]2O)c(=O)[nH]1` [cGMP, cyclic 3′,5′-guanosine monophosphate], the “binding to the cGMP binding sites of GST-cGB-PDE5 / PDE5” value in series [1] was “specifically bound”. For the same compound, the dissociation constant Kd in series [1] (read-out: Kd of cGMP binding to GST-cGB-PDE5, two cGMP binding sites) is 1600 ± 200 nM; at native bovine PDE5, 1300 nM.
`O=c1ccn([C@@H]2O[C@@H]3COP(=O)(O)O[C@H]3[C@H]2O)c(=O)[nH]1` [cUMP]: the “competition with cGMP in binding” value in series [1] (3H-cGMP 2 μM, 22° C., 1 hour) is “did not compete”.
Still for that read-out and setting: then `CC1=C(CC(=O)O)c2cc(F)ccc2/C1=C\c1ccc(S(C)(=O)=O)cc1` [exisulind], with “None of the PDE5 inhibitors showed any competition with cGMP”.
Same read-out and setting: then `CCCOc1ccccc1-c1nc2nn[nH]c2c(=O)[nH]1` [zaprinast], with “None of the PDE5 inhibitors showed any competition with cGMP”.
